According to US8962596B2 (Array BioPharma Inc., priority 2010, dated 2015):

Columns and labels:
Assay type in all cases: biochemical
[1] = target: T1, JAK3 (Homo sapiens, UniProt P52333); assay: JAK3 Inhibition Assay (Omnia kinase fluorescence peptide substrate assay); conditions: averaged IC50 ranges; assay of Example D; 10 μM (Km app) or 1 mM ATP, 2.5 nM JAK3
T1 construct: purchased Invitrogen Corporation, Carlsbad, Calif; PV4080
T1 sequence (P52333 1-1124): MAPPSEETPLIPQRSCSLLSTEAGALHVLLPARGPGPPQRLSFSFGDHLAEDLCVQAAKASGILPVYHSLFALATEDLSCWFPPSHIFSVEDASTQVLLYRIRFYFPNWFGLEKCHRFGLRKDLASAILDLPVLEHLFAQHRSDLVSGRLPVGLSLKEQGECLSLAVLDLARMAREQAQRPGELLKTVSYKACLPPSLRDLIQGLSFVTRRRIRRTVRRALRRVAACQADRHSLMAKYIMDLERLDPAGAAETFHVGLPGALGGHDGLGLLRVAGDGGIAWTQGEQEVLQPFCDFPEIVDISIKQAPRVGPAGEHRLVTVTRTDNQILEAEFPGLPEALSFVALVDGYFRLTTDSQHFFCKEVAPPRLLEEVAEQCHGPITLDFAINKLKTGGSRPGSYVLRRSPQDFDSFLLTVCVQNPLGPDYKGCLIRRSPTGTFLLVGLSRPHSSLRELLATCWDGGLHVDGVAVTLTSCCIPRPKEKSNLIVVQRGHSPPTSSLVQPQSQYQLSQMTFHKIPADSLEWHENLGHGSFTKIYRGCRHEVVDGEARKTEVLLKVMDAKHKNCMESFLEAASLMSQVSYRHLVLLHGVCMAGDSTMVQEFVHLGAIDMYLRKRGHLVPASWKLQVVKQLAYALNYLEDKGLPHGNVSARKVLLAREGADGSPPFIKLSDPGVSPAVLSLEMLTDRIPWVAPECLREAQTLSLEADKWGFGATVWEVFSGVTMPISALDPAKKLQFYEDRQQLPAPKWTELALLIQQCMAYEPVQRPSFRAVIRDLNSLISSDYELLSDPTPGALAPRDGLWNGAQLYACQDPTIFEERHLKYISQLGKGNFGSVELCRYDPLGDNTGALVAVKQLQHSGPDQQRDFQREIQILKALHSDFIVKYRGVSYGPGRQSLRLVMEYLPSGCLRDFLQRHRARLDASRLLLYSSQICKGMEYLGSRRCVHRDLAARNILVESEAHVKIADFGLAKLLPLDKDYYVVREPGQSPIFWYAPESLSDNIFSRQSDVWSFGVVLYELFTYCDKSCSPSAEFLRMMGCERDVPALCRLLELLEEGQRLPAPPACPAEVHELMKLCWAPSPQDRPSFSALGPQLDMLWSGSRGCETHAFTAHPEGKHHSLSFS
Source text: (§1) The assays described in Examples A, B, C and D for the determination of Tyk2, JAK1, JAK2 and JAK3 kinase activity, respectively, utilized the Omnia® Kinase fluorescence peptide substrate-based technology (Invitrogen). The specific components of the assay mixture are described in Examples A, B, C and D. In these assays, Mg^2+ is chelated upon phosphorylation of the Omnia peptide by the kinase to form a bridge between the chelation-enhanced fluorophore Sox and the phosphate, resulting in an increase in fluorescence emission at 485 nm when excited at […]. The reactions were therefore read at excitation 360 nm and emission was measured at 485 nm every 50 seconds for 45 minutes using a PerkinElmer EnVision Multilabel Plate Reader.
(§2) The final buffer conditions for Tyk2, JAK1, JAK2, and JAK3 assays were as follows: 25 mM HEPES, pH 7.4, 10 mM MgCl2, 0.01% Triton X-100 and 1 mM DTT.
(§3) Compounds were prepared at 50× the final concentration in DMSO by conducting 3-fold serial dilutions from a 500-μM intermediate dilution to give a 10-point dosing curve having a high dose of 10 μM. Two-μL aliquots of these were transferred to a fresh plate for a ten-fold intermediate dilution with assay buffer. Five-μL aliquots of the diluted compounds were then transferred to 20-μL of assay mixtures described in Examples A, B, C and D for a final concentration of DMSO of 2%. A standard or reference compound was typically included on each assay plate to validate that plate. For each plate, percent of control (POC) values were calculated for each well according to the following equation:
(§4) where Xmax=Average Uninhibited Controls • Xmin=Average Background IC50's were estimated from the POC's using a standard 4-parameter logistic model:
(§5) where • A=Minimum Y (Bottom Asymptote) • B=Maximum Y (Top Asymptote) • C=EC50 • D=Slope Factor • X=Compound Concentration (nM) • Y=POC
(§6) The IC50 is defined as the concentration of inhibitor at which the POC equals 50 for the fitted curve.
(§7) Compounds of Formula I were screened for their ability to inhibit JAK3 using the general enzyme inhibition assay method, in which the assay mixture contained 10 μM (Km app) or 1 mM ATP, 10 μM Omnia® Y7 peptide (Catalog #IVGN KNZ3071C, Invitrogen Corporation, Carlsbad, Calif.) and 2.5 nM JAK3 in a total volume of 20 μL. JAK3 was purchased from Invitrogen Corporation, Carlsbad, Calif. (catalog #IVGN PV4080).

[2] = target: T2, JAK1 (Homo sapiens, UniProt P23458); assay: JAK1 Inhibition Assay (Omnia kinase fluorescence peptide substrate assay); conditions: averaged IC50 ranges; assay of Example B; 40 μM (Km app) or 1 mM ATP, 15 nM JAK1
T2 construct: purchased Invitrogen Corporation, Carlsbad, Calif; PV4775
Source text: as §1, §2, §3, §4, §5, §6
Compounds of Formula I were screened for their ability to inhibit JAK1 using the general enzyme inhibition assay method, in which the assay mixture contained 40 μM (Km app) or 1 mM ATP, 8 μM Omnia® Y12 peptide (Catalog #IVGN KPZ3121C; Invitrogen Corporation, Carlsbad, Calif.) and 15 nM JAK1 in a total volume of 20 μL. JAK1 was purchased from Invitrogen Corporation, Carlsbad, Calif. (catalog #IVGN PV4775).

[3] = target: T3, Human Tyk2 kinase domain (Homo sapiens, UniProt P29597); assay: Tyk2 Inhibition Assay (Omnia kinase fluorescence peptide substrate assay); conditions: averaged IC50 ranges; assay of Example A; 10 μM (Km app) or 1 mM ATP, 2 nM Tyk2
T3 construct: comprising amino acids 886 to 1187 with 10 additional histidine residues; 10xHis (histidine tag) (C, cleaved yes); made in house
T3 sequence (P29597 886-1187): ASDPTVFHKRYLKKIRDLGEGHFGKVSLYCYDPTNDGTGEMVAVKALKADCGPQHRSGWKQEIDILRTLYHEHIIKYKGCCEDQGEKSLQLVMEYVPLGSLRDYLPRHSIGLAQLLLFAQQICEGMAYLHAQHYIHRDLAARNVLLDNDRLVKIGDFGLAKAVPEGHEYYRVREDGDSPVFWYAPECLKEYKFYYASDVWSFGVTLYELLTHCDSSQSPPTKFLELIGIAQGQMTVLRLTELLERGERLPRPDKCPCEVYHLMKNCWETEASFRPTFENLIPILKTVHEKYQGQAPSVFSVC
Source text: as §1, §2, §3, §4, §5, §6
Compounds of Formula I were screened for their ability to inhibit Tyk2 using the general enzyme inhibition assay method, in which the assay mixture contained 10 μM (Km app) or 1 mM ATP, 8 μM Omnia® Y12 peptide (Catalog #IVGN KPZ3121C; Invitrogen Corporation, Carlsbad, Calif.) and 2 nM Tyk2 in a total volume of 20 μL. Human Tyk2 kinase domain, comprising amino acids 886 to 1187 with 10 additional histidine residues (histidine tag) on the carboxy terminus, was expressed and purified from bacculovirus in-house at Array BioPharma Inc. (Boulder, Colo.). The histidine tag was cleaved after purification using standard conditions.

[4] = target: T4, JAK2 (Homo sapiens, UniProt O60674); assay: JAK2 Inhibition Assay (Omnia kinase fluorescence peptide substrate assay); conditions: averaged IC50 ranges; assay of Example C; 25 μM (Km app) or 1 mM ATP, 5 nM JAK2
T4 construct: purchased Invitrogen Corporation, Carlsbad, Calif; PV4288
Source text: as §1, §2, §3, §4, §5, §6
as §7, with “inhibit JAK2” for “inhibit JAK3”, “contained 25” for “contained 10”, “and 5” for “and 2.5”, “nM JAK2” for “nM JAK3”, “μL. JAK2” for “μL. JAK3”, “#IVGN PV4288).” for “#IVGN PV4080).”

T4 sequence (O60674 whole entry): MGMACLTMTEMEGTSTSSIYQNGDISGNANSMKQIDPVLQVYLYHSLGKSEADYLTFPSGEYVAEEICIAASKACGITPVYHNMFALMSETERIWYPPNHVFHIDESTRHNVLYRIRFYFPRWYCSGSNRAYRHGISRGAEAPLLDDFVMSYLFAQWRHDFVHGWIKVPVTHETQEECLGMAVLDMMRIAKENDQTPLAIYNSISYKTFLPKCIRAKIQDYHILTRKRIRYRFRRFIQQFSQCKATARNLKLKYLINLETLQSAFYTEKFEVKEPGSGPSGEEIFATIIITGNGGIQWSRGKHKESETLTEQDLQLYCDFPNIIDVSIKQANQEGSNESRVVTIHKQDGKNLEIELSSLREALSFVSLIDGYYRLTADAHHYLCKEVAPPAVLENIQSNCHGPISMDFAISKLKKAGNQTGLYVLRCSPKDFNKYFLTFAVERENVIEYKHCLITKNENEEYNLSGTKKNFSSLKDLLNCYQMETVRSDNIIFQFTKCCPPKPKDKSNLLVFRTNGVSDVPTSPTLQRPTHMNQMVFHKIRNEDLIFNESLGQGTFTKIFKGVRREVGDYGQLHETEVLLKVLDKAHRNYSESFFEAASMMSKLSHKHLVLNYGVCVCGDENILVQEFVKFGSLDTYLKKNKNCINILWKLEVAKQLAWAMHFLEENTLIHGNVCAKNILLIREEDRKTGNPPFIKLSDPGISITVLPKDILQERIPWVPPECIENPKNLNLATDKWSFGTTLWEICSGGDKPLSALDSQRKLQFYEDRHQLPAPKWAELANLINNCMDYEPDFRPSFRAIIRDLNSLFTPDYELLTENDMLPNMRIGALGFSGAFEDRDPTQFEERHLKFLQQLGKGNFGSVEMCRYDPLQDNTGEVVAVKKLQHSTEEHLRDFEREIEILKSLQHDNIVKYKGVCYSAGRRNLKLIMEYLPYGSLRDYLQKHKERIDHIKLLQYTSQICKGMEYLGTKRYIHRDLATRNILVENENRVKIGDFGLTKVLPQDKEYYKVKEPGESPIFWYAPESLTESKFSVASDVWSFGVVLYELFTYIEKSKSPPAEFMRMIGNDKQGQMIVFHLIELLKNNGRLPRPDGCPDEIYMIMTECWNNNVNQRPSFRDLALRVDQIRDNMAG
T2 sequence (P23458 whole entry): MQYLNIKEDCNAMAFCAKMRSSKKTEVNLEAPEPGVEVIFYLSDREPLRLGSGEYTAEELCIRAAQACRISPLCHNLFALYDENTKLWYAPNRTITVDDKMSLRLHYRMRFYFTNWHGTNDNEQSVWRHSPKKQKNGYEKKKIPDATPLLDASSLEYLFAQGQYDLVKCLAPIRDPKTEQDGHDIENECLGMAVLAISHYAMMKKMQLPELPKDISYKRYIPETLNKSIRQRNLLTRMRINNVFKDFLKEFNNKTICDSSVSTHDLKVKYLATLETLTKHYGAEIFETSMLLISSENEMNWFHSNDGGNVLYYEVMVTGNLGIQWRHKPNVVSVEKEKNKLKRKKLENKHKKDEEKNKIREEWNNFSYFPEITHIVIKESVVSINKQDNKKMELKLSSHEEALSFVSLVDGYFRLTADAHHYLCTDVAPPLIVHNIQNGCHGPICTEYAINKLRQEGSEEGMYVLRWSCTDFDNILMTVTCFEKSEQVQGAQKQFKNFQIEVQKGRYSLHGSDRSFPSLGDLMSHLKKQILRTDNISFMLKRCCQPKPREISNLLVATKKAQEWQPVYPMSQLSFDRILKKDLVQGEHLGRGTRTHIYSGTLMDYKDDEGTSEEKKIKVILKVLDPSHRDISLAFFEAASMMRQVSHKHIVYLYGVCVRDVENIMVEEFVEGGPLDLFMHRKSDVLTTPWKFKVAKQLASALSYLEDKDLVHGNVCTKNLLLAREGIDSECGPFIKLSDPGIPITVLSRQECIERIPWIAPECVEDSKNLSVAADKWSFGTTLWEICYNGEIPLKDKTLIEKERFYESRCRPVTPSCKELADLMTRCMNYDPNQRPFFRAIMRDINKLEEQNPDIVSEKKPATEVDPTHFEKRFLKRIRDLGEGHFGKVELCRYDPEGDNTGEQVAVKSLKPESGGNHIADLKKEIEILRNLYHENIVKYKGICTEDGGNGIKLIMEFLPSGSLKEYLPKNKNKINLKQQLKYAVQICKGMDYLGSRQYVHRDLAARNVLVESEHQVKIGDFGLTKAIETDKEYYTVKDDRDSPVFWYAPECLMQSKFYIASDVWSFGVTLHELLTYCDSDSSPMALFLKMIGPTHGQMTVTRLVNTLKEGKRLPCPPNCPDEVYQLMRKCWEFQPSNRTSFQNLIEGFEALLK

| Structure (SMILES) | IC50 [1] | IC50 [2] | IC50 [3] | IC50 [4] |
| --- | --- | --- | --- | --- |
| Cn1cc(-c2cc3ncc(Cl)n3c(-c3cnn(C4(CC#N)CN(CC(F)(F)F)C4)c3)n2)cn1 [Example 90, 2-(3-(4-(3-Chloro-7-(1-methyl-1H-pyrazol-4-yl)imidazo[1,2-c]pyrimidin-5-yl)-1H-pyrazol-1-yl)-1-(2,2,2-trifluoroethyl)azetidin-3-yl)acetonitrile] | 100 to 1000 nM | 100 to 1000 nM | < 10 nM | 10 to 100 nM |
| N#CCC(C1CC1)n1cc(-c2nc(-c3cn[nH]c3)cc3nccn23)cn1 (centres unmarked) [Example 33, 3-(4-(7-(1H-pyrazol-4-yl)imidazo[1,2-c]pyrimidin-5-yl)-1H-pyrazol-1-yl)-3-cyclopropylpropanenitrile] | > 1000 nM | 100 to 1000 nM | 10 to 100 nM | 100 to 1000 nM |
| N#CCC1(n2cc(-c3nc(-c4cnn(C5COC5)c4)cc4nccn34)cn2)CN(CC(F)F)C1 [Example 156, 2-(1-(2,2-difluoroethyl)-3-(4-(7-(1-(oxetan-3-yl)-1H-pyrazol-4-yl)imidazo[1,2-c]pyrimidin-5-yl)-1H-pyrazol-1-yl)azetidin-3-yl)acetonitrile] | > 1000 nM | 100 to 1000 nM | < 10 nM | 10 to 100 nM |
| N#CCC1(n2cc(-c3nc(-c4cnn(C5COC5)c4)cc4ncc(Cl)n34)cn2)CN(CC(F)(F)F)C1 [Example 153, 2-(3-(4-(3-chloro-7-(1-(oxetan-3-yl)-1H-pyrazol-4-yl)imidazo[1,2-c]pyrimidin-5-yl)-1H-pyrazol-1-yl)-1-(2,2,2-trifluoroethyl)azetidin-3-yl)acetonitrile] | 100 to 1000 nM | 100 to 1000 nM | < 10 nM | 10 to 100 nM |
| Cn1cc(-c2cc3nccn3c(-c3cnn(C4(CC#N)CCN(C(=O)OC(C)(C)C)CC4)c3)n2)cn1 [Example 21, tert-butyl 4-(cyanomethyl)-4-(4-(7-(1-methyl-1H-pyrazol-4-yl)imidazo[1,2-c]pyrimidin-5-yl)-1H-pyrazol-1-yl)piperidine-1-carboxylate] | > 1000 nM | > 1000 nM | 100 to 1000 nM | > 1000 nM |

Next, values leading:

| IC50 [1] | IC50 [2] | IC50 [3] | IC50 [4] | Structure (SMILES) |
| --- | --- | --- | --- | --- |
| > 1000 nM | 100 to 1000 nM | < 10 nM | 10 to 100 nM | Cn1cc(-c2cc3nccn3c(-c3cnn(C4(CC#N)CN(CC(F)(F)C(F)F)C4)c3)n2)cn1 [Example 80, 2-(3-(4-(7-(1-methyl-1H-pyrazol-4-yl)imidazo[1,2-c]pyrimidin-5-yl)-1H-pyrazol-1-yl)-1-(2,2,3,3-tetrafluoropropyl)azetidin-3-yl)acetonitrile] |
| > 1000 nM | 10 to 100 nM | 10 to 100 nM | 10 to 100 nM | Cn1cc(-c2cc3nccn3c(-c3cnn(C4(CC#N)COC4)c3)n2)cn1 [Example 24, 2-(3-(4-(7-(1-methyl-1H-pyrazol-4-yl)imidazo[1,2-c]pyrimidin-5-yl)-1H-pyrazol-1-yl)oxetan-3-yl)acetonitrile] |
| > 1000 nM | > 1000 nM | 10 to 100 nM | > 1000 nM | COc1ncc(-c2cc3nccn3c(-c3cnn(C4(CC#N)CN(S(=O)(=O)C(F)(F)F)C4)c3)n2)cn1 [Example 142, 2-(3-(4-(7-(2-methoxypyrimidin-5-yl)imidazo[1,2-c]pyrimidin-5-yl)-1H-pyrazol-1-yl)-1-(trifluoromethylsulfonyl)azetidin-3-yl)acetonitrile] |
| > 1000 nM | > 1000 nM | 100 to 1000 nM | 100 to 1000 nM | CC(=O)N1CCC(CC#N)(n2cc(-c3nc(-c4cnn(C)c4)cc4nccn34)cn2)C1 (centres unmarked) [Example 134, 2-(1-acetyl-3-(4-(7-(1-methyl-1H-pyrazol-4-yl)imidazo[1,2-c]pyrimidin-5-yl)-1H-pyrazol-1-yl)pyrrolidin-3-yl)acetonitrile] |
| > 1000 nM | > 1000 nM | 100 to 1000 nM | > 1000 nM | CC(=O)N1CC(CC#N)(n2cc(-c3nc(-c4cnn(C)c4)cc4nccn34)cn2)C1 [Example 63, 2-(1-Acetyl-3-(4-(7-(1-methyl-1H-pyrazol-4-yl)imidazo[1,2-c]pyrimidin-5-yl)-1H-pyrazol-1-yl)azetidin-3-yl)acetonitrile] |
| 100 to 1000 nM | < 10 nM | < 10 nM | < 10 nM | Cn1cc(-c2cc3nccn3c(-c3cnn(C4(CC#N)CN(S(=O)(=O)C(F)(F)F)C4)c3)n2)cn1 [Example 96, 2-(3-(4-(7-(1-Methyl-1H-pyrazol-4-yl)imidazo[1,2-c]pyrimidin-5-yl)-1H-pyrazol-1-yl)-1-(trifluoromethylsulfonyl)azetidin-3-yl)acetonitrile] |
